Measured values taken from patent US9212182B2, “Bicyclic sulfonamide compounds as sodium channel inhibitors” (AMGEN INC., priority 2013, dated 2015).
Like-named read-outs stand apart in the source and are kept apart here.

Molecular target: Nav 1.7 (Homo sapiens (Human), UniProt Q15858)
Experiment: in-vitro Nav 1.7 PX (IC50)
Type: cell-based
[1] = in-vitro Nav 1.7 PX data (PatchXpress)

Chain of Nav 1.7 (Q15858 whole entry): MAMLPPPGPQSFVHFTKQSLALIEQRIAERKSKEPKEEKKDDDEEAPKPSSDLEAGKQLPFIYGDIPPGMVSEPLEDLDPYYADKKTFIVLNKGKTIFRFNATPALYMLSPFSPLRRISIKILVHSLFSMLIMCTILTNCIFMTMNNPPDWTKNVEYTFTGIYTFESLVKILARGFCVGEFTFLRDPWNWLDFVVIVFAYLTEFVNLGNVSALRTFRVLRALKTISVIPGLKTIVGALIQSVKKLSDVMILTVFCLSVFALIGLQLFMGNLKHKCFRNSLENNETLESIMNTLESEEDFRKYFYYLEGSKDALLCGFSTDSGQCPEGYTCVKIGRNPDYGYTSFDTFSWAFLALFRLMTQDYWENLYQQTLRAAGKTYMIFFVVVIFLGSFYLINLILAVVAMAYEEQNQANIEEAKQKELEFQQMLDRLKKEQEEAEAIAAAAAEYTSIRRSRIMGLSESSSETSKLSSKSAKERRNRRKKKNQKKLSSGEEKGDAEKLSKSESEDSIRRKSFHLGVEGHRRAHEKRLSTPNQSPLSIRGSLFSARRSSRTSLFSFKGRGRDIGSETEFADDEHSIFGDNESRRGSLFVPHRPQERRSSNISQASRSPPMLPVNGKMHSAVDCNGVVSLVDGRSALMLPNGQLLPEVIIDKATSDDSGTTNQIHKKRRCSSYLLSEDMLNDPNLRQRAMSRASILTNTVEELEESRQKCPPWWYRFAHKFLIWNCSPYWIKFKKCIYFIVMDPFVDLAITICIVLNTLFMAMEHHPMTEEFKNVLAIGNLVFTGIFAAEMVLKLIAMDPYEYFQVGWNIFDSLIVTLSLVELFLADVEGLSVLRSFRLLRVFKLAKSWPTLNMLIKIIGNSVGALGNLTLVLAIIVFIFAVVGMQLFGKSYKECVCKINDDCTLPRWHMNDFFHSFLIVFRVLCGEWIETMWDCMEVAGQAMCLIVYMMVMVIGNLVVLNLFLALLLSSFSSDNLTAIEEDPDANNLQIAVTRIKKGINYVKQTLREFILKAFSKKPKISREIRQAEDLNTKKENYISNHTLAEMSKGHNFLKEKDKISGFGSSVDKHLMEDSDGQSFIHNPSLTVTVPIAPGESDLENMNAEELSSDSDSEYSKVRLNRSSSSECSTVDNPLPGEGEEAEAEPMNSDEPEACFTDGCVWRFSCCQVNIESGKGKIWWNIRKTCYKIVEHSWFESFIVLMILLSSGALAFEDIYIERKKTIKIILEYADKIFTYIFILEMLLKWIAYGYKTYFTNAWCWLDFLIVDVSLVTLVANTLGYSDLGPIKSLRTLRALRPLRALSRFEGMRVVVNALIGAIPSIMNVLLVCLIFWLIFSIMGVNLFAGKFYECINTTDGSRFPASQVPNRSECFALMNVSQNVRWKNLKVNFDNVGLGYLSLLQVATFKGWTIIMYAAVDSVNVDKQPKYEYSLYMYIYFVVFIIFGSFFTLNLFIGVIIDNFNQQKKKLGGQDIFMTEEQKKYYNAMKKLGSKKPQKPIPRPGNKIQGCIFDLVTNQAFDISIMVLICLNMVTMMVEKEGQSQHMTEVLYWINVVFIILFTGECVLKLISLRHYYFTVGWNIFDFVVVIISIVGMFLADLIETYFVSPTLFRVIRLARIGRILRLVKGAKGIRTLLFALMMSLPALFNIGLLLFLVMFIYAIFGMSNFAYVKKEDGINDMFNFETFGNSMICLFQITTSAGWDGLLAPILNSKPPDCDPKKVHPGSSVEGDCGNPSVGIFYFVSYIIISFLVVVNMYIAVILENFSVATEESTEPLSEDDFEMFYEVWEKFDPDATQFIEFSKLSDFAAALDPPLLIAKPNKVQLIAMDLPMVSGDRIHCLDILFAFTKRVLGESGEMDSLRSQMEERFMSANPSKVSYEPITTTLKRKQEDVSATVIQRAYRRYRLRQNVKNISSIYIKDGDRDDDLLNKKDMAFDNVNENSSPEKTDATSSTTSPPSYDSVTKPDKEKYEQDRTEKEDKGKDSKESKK

COc1cc(-c2cccc(OC)c2F)c(C)cc1-n1c(=O)ccc2cc(S(=O)(=O)Nc3ncccn3)ccc21 [Example 964, 1-(2′-fluoro-3′,5-dimethoxy-2-methyl-4-biphenylyl)-2-oxo-N-2-pyrimidinyl-1,2-dihydro-6-quinolinesulfonamide]
IC50 (in-vitro Nav 1.7 PX data): 246 nM

COc1cc(-c2cccc(C(F)(F)F)c2)ccc1-n1c(=O)ccc2cc(S(=O)(=O)Nc3ccnc(C)n3)ccc21 [Example 947, 1-(3-methoxy-3′-(trifluoromethyl)-4-biphenylyl)-N-(2-methyl-4-pyrimidinyl)-2-oxo-1,2-dihydro-6-quinolinesulfonamide]
IC50 (in-vitro Nav 1.7 PX data): 51 nM

COc1cc(Br)ccc1-n1c(=O)ccc2cc(S(=O)(=O)Nc3ccon3)ccc21 (atropisomer, axis not shown; (P)) [Example 574, (P)-1-(4-bromo-2-methoxyphenyl)-N-3-isoxazolyl-2-oxo-1,2-dihydro-6-quinolinesulfonamide]
IC50: 772 nM

COc1ccc(-c2ccc(F)c(F)c2)cc1-n1c(=O)ccc2cc(S(=O)(=O)Nc3ccon3)ccc21 [Example 839, 1-(3′,4′-difluoro-4-methoxy-3-biphenylyl)-N-3-isoxazolyl-2-oxo-1,2-dihydro-6-quinolinesulfonamide]
IC50 (in-vitro Nav 1.7 PX data): 113 nM

COc1ccc(Cl)c(-c2ccc(-n3c(=O)ccc4cc(S(=O)(=O)Nc5ccon5)ccc43)c(OC)c2)c1 [Example 1031, 1-(2′-chloro-3,5′-dimethoxy-4-biphenylyl)-N-3-isoxazolyl-2-oxo-1,2-dihydro-6-quinolinesulfonamide]
IC50 [1]: 25 nM

COc1nc(N(C)C2CCCC2)c(Cl)cc1-n1c(=O)ccc2cc(S(=O)(=O)Nc3ccon3)ccc21 [Example 1231, 1-(5-chloro-6-(cyclopentyl(methyl)amino)-2-methoxy-3-pyridinyl)-N-3-isoxazolyl-2-oxo-1,2-dihydro-6-quinolinesulfonamide]
IC50: 115 nM

COc1cc(-c2ccc(C)c(C#N)c2)c(F)cc1-n1c(=O)ccc2cc(S(=O)(=O)Nc3ccon3)ccc21 (atropisomer, axis not shown; (M)) [Example 525, (M)-1-(3′-cyano-2-fluoro-5-methoxy-4′-methyl-4-biphenylyl)-N-3-isoxazolyl-2-oxo-1,2-dihydro-6-quinolinesulfonamide]
IC50 (in-vitro PatchXpress (PX)): 4840 nM

COc1cc(-c2ccc(C)c(C#N)c2)c(F)cc1-n1c(=O)ccc2cc(S(=O)(=O)Nc3ccon3)ccc21 (atropisomer, axis not shown; (P)) [Example 524, (P)-1-(3′-cyano-2-fluoro-5-methoxy-4′-methyl-4-biphenylyl)-N-3-isoxazolyl-2-oxo-1,2-dihydro-6-quinolinesulfonamide]
IC50 (in-vitro PatchXpress (PX)): 25 nM

COc1cc(C[C@@H]2CCOC2)c(F)cc1-n1c(=O)ccc2cc(S(=O)(=O)Nc3ccon3)ccc21 (atropisomer, axis not shown; (P)) [Example 1235, (P)-1-(5-fluoro-2-methoxy-4-((3R)-tetrahydro-3-furanylmethyl)phenyl)-N-3-isoxazolyl-2-oxo-1,2-dihydro-6-quinolinesulfonamide]
IC50: 2130 nM

COc1nc(Oc2ccc(F)cc2)c(Cl)cc1-n1c(=O)ccc2cc(S(=O)(=O)Nc3ccon3)ccc21 [Example 1220, 1-(5-chloro-6-(4-fluorophenoxy)-2-methoxy-3-pyridinyl)-N-3-isoxazolyl-2-oxo-1,2-dihydro-6-quinolinesulfonamide]
IC50: 3100 nM

COc1cc(-c2ccc(-n3c(=O)ccc4cc(S(=O)(=O)Nc5cccnn5)ccc43)c(OC)c2)ccc1Cl [Example 1038, 1-(4′-chloro-3,3′-dimethoxy-4-biphenylyl)-2-oxo-N-3-pyridazinyl-1,2-dihydro-6-quinolinesulfonamide]
IC50 [1]: 58 nM

COc1ccc(-c2cccc(F)c2)cc1-n1c(=O)ccc2cc(S(=O)(=O)Nc3ccon3)ccc21 (atropisomer, axis not shown; (M)) [Example 484, (M)-1-(3′-fluoro-4-methoxy-3-biphenylyl)-N-3-isoxazolyl-2-oxo-1,2-dihydro-6-quinolinesulfonamide]
IC50: 32300 nM

COc1nc(NC[C@H]2CCC(C)(C)O2)c(Cl)cc1-n1c(=O)ccc2cc(S(=O)(=O)Nc3ccon3)ccc21 [Example 1232, 1-(5-chloro-6-((((2R)-5,5-dimethyltetrahydro-2-furanyl)methyl)amino)-2-methoxy-3-pyridinyl)-N-3-isoxazolyl-2-oxo-1,2-dihydro-6-quinolinesulfonamide, 1-(5-chloro-6-((((2S)-5,5-dimethyltetrahydro-2-furanyl)methyl)amino)-2-methoxy-3-pyridinyl)-N-3-isoxazolyl-2-oxo-1,2-dihydro-6-quinolinesulfonamide]
IC50: 2940 nM

COc1cc(-c2ccc(Cl)c(C)c2)c(F)cc1-n1c(=O)ccc2cc(S(=O)(=O)Nc3cc(C)on3)ccc21 [Example 931, 1-(4′-chloro-2-fluoro-5-methoxy-3′-methyl-4-biphenylyl)-N-(5-methyl-3-isoxazolyl)-2-oxo-1,2-dihydro-6-quinolinesulfonamide]
IC50 (in-vitro Nav 1.7 PX data): 128 nM

COc1cc(-c2ccc(Cl)c(C)c2)ccc1-n1c(=O)ccc2cc(S(=O)(=O)Nc3cnccn3)ccc21 [Example 659, 1-(4′-chloro-3-methoxy-3′-methyl-4-biphenylyl)-2-oxo-N-2-pyrazinyl-1,2-dihydro-6-quinolinesulfonamide]
IC50 (in-vitro Nav 1.7 PX data): 35 nM

COc1cc(Br)c(C)cc1-n1c(=O)ccc2cc(S(=O)(=O)Nc3ccon3)ccc21 (atropisomer, axis not shown; (P)) [Example 415, (P)-1-(4-bromo-2-methoxy-5-methylphenyl)-N-3-isoxazolyl-2-oxo-1,2-dihydro-6-quinolinesulfonamide]
IC50: 269 nM

COc1cc(F)cc(-c2ccc(-n3c(=O)ccc4cc(S(=O)(=O)Nc5cc(C)ncn5)ccc43)c(OC)c2)c1 [Example 1004, 1-(3′-fluoro-3,5′-dimethoxy-4-biphenylyl)-N-(6-methyl-4-pyrimidinyl)-2-oxo-1,2-dihydro-6-quinolinesulfonamide]
IC50 (in-vitro Nav 1.7 PX data): 219 nM

COc1cc(-c2cccc(C(F)(F)F)c2)ccc1-n1c(=O)ccc2cc(S(=O)(=O)Nc3cnc(C)cn3)ccc21 [Example 949, 1-(3-methoxy-3′-(trifluoromethyl)-4-biphenylyl)-N-(5-methyl-2-pyrazinyl)-2-oxo-1,2-dihydro-6-quinolinesulfonamide]
IC50 (in-vitro Nav 1.7 PX data): 1240 nM

COc1cc(-c2ccc(Cl)c(C#N)c2)c(F)cc1-n1c(=O)ccc2cc(S(=O)(=O)Nc3ccon3)ccc21 (atropisomer, axis not shown; (M)) [Example 509, (M)-1-(4′-chloro-3′-cyano-2-fluoro-5-methoxy-4-biphenylyl)-N-3-isoxazolyl-2-oxo-1,2-dihydro-6-quinolinesulfonamide]
IC50 (in-vitro PatchXpress (PX)): 1680 nM

COc1cc(-c2cc(F)cc(Cl)c2)ccc1-n1c(=O)ccc2cc(S(=O)(=O)Nc3cccnn3)ccc21 (atropisomer, axis not shown; (P)) [Example 480, (P)-1-(3′-chloro-5′-fluoro-3-methoxy-4-biphenylyl)-2-oxo-N-3-pyridazinyl-1,2-dihydro-6-quinolinesulfonamide]
IC50 (in-vitro PatchXpress (PX)): 8 nM

COc1cc(-c2cc(F)cc(Cl)c2)c(C)cc1-n1c(=O)ccc2cc(S(=O)(=O)Nc3ccon3)ccc21 (atropisomer, axis not shown; (P)) [Example 417, (P)-1-(3′-chloro-5′-fluoro-5-methoxy-2-methyl-4-biphenylyl)-N-3-isoxazolyl-2-oxo-1,2-dihydro-6-quinolinesulfonamide]
IC50: 9 nM

COc1cc(-c2ccc(F)cc2)ccc1-n1c(=O)ccc2cc(S(=O)(=O)Nc3ccon3)ccc21 [Example 1069, 1-(4′-fluoro-3-methoxy-4-biphenylyl)-N-3-isoxazolyl-2-oxo-1,2-dihydro-6-quinolinesulfonamide]
IC50 [1]: 71 nM

COc1cc(-c2ccc(Cl)c(C#N)c2)c(F)cc1-n1c(=O)ccc2cc(S(=O)(=O)Nc3ncco3)ccc21 [Example 890, 1-(4′-chloro-3′-cyano-2-fluoro-5-methoxy-4-biphenylyl)-N-1,3-oxazol-2-yl-2-oxo-1,2-dihydro-6-quinolinesulfonamide]
IC50 (in-vitro Nav 1.7 PX data): 84 nM

COc1cc(-c2ccc(C)c(F)c2)c(F)cc1-n1c(=O)ccc2cc(S(=O)(=O)Nc3ccnc(C)n3)ccc21 [Example 1124, 1-(2,3′-difluoro-5-methoxy-4′-methyl-4-biphenylyl)-N-(2-methyl-4-pyrimidinyl)-2-oxo-1,2-dihydro-6-quinolinesulfonamide]
IC50 (in-vitro Nav 1.7 PX data): 106 nM

COc1cc(-c2ccc(F)c(Cl)c2)c(F)cc1-n1c(=O)ccc2cc(S(=O)(=O)Nc3ccon3)ccc21 (atropisomer, axis not shown; (P)) [Example 365, (P)-1-(3′-chloro-2,4′-difluoro-5-methoxy-4-biphenylyl)-N-3-isoxazolyl-2-oxo-1,2-dihydro-6-quinolinesulfonamide]
IC50 (in-vitro PatchXpress (PX)): 9 nM

COc1cc(-c2ccccn2)c(F)cc1-n1c(=O)ccc2cc(S(=O)(=O)Nc3ccon3)ccc21 [Example 594, 1-(5-fluoro-2-methoxy-4-(2-pyridinyl)phenyl)-N-3-isoxazolyl-2-oxo-1,2-dihydro-6-quinolinesulfonamide]
IC50 (in-vitro Nav 1.7 PX data): 1660 nM

COc1cc(C2CCC(F)(F)CC2)c(F)cc1-n1c(=O)ccc2cc(S(=O)(=O)Nc3ccon3)ccc21 [Example 1102, 1-(4-(4,4-difluorocyclohexyl)-5-fluoro-2-methoxyphenyl)-N-3-isoxazolyl-2-oxo-1,2-dihydro-6-quinolinesulfonamide]
IC50 (in-vitro Nav 1.7 PX data): 237 nM

Cc1cc(-c2cc(C)c(-n3c(=O)ccc4cc(S(=O)(=O)Nc5ncccn5)ccc43)cc2F)ccc1Cl (atropisomer, axis not shown; (M)) [Example 650, (M)-1-(4′-chloro-2-fluoro-3′,5-dimethyl-4-biphenylyl)-2-oxo-N-2-pyrimidinyl-1,2-dihydro-6-quinolinesulfonamide]
IC50 (in-vitro Nav 1.7 PX data): 3800 nM

COc1cc(-c2cc(F)cc(F)c2F)c(F)cc1-n1c(=O)ccc2cc(S(=O)(=O)Nc3ccon3)ccc21 (atropisomer, axis not shown; (M)) [Example 515, (M)-N-3-isoxazolyl-2-oxo-1-(2,2′,3′,5′-tetrafluoro-5-methoxy-4-biphenylyl)-1,2-dihydro-6-quinolinesulfonamide]
IC50 (in-vitro PatchXpress (PX)): 5160 nM
